From US12421243B2, “Pharmaceutically effective compounds inhibiting selectively the myosin 2 isoforms” (PRINTNET KERESKEDELMI ÉS SZOLGÁLTATÓ KFT., priority 2018, dated 2025)

Tests used:
[1] = molecular target: recombinant Dictyostelium miozin (Dictyostelium) (Dictyostelium discoideum, UniProt P08799); experiment: actomyosin steady state ATPase measurement, Dictyostelium myosin; type: biochemical; conditions: for IC50: concentration required for semi-maximal inhibition of ATPase, read-out: IC50 (μM) Dicty; for % inhibition. complete Dicty: maximum value of inhibition of ATPase activity; for inhibition at 5 µM: read-out: % inhibition at 5 μM (or 10 μM if racemate) Dicty; for inhibition at 50 µM: read-out: % inhibition at 50 μM (or 100 μM if racemate) Dicty; for Inhibition (%) Dicty: maximum inhibition, compounds in IC50 range 1-11 μM
Excerpt: (§1) […]; (ii) the concentration required for semi-maximal inhibition.

[2] = molecular target: recombinant human non-muscle myosin 2 NM2C (Homo sapiens, UniProt Q7Z406); experiment: actomyosin steady state ATPase measurement, NM2C; type: biochemical; conditions: for IC50: concentration required for semi-maximal inhibition of ATPase; for % inhibition. complete NM2C: maximum value of inhibition of ATPase activity; for inhibition at 5 µM: read-out: % inhibition at 5 μM (or 10 μM if racemate) NM2C, 5 μM (10 μM if racemate); for inhibition at 5 µM / inhibition at 50 µM: ATPase activity; for inhibition at 50 µM: read-out: % inhibition at 50 μM (or 100 μM if racemate) NM2C, 50 μM (100 μM if racemate)
Excerpt: as §1

[3] = molecular target: T1, isolated porcine cardiac ventricular myocardium (cardiac) (Sus scrofa, UniProt P79293); experiment: actomyosin steady state ATPase measurement, cardiac myosin; type: biochemical; conditions: for IC50: concentration required for semi-maximal inhibition of ATPase; for % inhibition. complete cardiac: maximum value of inhibition of ATPase activity; for inhibition at 5 µM: read-out: % inhibition at 5 μM (or 10 μM if racemate) cardiac, 5 μM (10 μM if racemate); for inhibition at 5 µM / inhibition at 50 µM: ATPase activity; for inhibition at 50 µM: read-out: % inhibition at 50 μM (or 100 μM if racemate) cardiac, 50 μM (100 μM if racemate)
T1 construct: isolated porcine cardiac ventricular myocardium (cardiac); from tissue; host or cells: porcine cardiac ventricle
Excerpt: as §1

[4] = system: isolated rabbit skeletal muscle myosin (skeletal); experiment: actomyosin steady state ATPase measurement, skeletal muscle myosin; type: biochemical; conditions: for % inhibition at 5 μM (or 10 μM if racemate) Skeletal: 5 μM (10 μM if racemate); for % inhibition at 5 μM (or 10 μM if racemate) Skeletal / % inhibition at 50 μM (or 100 μM if racemate) Skeletal: ATPase activity; for % inhibition at 50 μM (or 100 μM if racemate) Skeletal: 50 μM (100 μM if racemate); for IC50: concentration required for semi-maximal inhibition of ATPase; for % inhibition. complete Skeletal: maximum value of inhibition of ATPase activity
Excerpt: as §1

[5] = molecular target: isolated smooth muscle myosin (UniProt P10587); type: biochemical, chamois; conditions: concentration required for semi-maximal inhibition of ATPase
Excerpt: (ii) the concentration required for semi-maximal inhibition.

[6] = molecular target: isolated smooth muscle myosin (UniProt P10587); type: biochemical, chamois; conditions: for % inhibition at 5 μM (or 10 μM if racemate) Smooth: 5 μM (10 μM if racemate); for % inhibition at 5 μM (or 10 μM if racemate) Smooth / % inhibition at 50 μM (or 100 μM if racemate) Smooth: ATPase activity; for % inhibition at 50 μM (or 100 μM if racemate) Smooth: 50 μM (100 μM if racemate); for Inhibition (%) smooth: maximum inhibition, compounds in IC50 range 1-5 μM; for % inhibition. complete Smooth: maximum value of inhibition of ATPase activity

T1 sequence (P79293 whole entry): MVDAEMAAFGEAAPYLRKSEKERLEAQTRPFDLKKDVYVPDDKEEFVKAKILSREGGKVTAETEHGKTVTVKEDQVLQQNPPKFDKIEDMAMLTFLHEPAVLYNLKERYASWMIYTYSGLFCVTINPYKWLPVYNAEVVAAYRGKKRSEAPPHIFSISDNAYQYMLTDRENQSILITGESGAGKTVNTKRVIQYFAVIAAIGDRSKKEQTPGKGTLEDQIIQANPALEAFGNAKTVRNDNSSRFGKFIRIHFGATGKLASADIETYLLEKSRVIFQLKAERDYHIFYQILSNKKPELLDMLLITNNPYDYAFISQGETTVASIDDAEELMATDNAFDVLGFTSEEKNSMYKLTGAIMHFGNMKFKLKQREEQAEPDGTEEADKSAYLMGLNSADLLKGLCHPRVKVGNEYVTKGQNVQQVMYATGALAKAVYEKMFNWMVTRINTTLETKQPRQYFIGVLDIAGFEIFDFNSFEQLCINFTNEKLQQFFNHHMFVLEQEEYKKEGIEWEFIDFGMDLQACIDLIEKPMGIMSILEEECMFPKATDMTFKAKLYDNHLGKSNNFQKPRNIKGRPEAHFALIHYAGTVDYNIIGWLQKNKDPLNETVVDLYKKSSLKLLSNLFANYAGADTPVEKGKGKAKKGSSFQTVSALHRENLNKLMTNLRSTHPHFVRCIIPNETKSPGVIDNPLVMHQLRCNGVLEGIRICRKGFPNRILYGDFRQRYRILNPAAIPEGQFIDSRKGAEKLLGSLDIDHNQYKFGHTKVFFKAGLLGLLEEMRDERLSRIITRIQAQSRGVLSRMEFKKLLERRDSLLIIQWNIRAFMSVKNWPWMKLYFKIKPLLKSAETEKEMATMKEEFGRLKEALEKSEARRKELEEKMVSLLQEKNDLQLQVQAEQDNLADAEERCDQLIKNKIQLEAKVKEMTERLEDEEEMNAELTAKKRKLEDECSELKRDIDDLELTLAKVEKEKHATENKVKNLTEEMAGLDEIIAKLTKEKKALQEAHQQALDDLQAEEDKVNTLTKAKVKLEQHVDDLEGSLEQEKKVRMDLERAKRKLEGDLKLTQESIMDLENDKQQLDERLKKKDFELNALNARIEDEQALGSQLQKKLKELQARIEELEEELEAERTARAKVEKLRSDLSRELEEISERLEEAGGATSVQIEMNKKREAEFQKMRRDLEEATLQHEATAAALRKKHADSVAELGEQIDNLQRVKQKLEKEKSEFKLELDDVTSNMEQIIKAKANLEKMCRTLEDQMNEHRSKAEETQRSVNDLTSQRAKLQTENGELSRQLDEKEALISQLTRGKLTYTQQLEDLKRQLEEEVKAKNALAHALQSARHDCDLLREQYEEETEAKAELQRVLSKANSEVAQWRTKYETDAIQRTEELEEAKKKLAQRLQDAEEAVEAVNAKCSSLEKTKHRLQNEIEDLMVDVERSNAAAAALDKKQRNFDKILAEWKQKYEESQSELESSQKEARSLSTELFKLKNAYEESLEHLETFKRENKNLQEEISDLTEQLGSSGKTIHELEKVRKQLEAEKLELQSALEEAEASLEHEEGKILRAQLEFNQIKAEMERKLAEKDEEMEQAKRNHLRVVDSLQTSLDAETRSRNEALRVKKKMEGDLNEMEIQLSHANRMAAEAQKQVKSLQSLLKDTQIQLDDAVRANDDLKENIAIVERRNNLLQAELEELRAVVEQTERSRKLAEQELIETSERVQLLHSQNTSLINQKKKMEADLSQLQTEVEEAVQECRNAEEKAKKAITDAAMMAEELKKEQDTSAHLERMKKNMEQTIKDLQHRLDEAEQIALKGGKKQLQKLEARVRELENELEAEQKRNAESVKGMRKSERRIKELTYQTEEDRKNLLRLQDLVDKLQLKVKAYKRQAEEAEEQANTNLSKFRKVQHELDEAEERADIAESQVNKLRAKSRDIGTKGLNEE
recombinant human non-muscle myosin 2 NM2C, sequence (Q7Z406 whole entry): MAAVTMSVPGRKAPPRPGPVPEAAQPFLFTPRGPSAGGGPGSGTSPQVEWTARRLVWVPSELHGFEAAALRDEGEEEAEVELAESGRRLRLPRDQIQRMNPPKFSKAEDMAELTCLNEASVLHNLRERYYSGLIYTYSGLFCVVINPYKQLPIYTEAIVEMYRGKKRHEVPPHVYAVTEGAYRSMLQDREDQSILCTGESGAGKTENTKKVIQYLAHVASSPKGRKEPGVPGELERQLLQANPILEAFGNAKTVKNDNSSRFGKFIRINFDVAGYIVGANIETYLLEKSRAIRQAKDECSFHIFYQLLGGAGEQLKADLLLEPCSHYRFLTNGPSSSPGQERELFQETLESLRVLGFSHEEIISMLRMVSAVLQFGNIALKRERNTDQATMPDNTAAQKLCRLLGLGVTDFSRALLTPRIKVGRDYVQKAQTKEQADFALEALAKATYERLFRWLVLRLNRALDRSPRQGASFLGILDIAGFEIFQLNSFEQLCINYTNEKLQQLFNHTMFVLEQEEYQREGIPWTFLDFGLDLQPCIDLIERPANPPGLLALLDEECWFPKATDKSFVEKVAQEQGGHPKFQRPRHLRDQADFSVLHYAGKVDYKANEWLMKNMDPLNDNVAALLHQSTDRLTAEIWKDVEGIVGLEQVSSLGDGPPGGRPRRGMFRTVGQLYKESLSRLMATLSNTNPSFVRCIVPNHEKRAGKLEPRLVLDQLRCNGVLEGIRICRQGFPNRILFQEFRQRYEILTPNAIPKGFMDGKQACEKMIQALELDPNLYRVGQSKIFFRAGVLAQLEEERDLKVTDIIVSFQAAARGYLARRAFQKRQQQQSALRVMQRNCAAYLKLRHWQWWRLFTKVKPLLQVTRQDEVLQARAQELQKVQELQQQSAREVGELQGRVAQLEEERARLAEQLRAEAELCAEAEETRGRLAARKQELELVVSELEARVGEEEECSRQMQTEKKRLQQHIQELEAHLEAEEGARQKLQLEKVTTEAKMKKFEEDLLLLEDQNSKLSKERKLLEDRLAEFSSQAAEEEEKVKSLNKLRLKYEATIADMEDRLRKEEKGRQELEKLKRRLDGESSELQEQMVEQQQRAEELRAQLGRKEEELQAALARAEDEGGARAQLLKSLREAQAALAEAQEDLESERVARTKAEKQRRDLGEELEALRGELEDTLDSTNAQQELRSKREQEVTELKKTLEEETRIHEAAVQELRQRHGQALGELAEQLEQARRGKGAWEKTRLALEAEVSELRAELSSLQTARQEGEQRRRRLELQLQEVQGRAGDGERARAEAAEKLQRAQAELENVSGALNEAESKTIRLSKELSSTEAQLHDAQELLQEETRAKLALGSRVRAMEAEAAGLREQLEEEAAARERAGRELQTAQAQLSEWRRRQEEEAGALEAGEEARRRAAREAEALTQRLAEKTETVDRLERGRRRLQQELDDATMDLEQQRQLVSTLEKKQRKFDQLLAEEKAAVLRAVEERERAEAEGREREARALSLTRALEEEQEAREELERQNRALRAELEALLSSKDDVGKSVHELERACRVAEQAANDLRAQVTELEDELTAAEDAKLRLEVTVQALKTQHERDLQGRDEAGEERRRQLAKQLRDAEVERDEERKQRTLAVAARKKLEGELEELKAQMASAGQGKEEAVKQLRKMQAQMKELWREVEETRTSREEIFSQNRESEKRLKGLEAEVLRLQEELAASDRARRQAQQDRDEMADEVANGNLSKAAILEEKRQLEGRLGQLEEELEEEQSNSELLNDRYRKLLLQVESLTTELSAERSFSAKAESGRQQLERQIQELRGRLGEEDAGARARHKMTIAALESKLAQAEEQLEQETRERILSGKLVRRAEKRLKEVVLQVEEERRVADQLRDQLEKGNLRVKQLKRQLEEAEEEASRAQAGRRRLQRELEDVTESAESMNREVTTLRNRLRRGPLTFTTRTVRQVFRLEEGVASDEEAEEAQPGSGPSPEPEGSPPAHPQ

Compound | IC50 [1] [µM] | % inhibition. complete Dicty [1] [%] | inhibition at 5 µM [1] [%] | inhibition at 50 µM [1] [%] | IC50 [2] [µM] | % inhibition. complete NM2C [2] [%] | inhibition at 5 µM [2] [%] | inhibition at 50 µM [2] [%] | IC50 [3] [µM] | % inhibition. complete cardiac [3] [%] | inhibition at 5 µM [3] [%] | inhibition at 50 µM [3] [%] | % inhibition at 5 μM (or 10 μM if racemate) Skeletal [4] [%] | % inhibition at 50 μM (or 100 μM if racemate) Skeletal [4] [%] | IC50 [4] [µM] | % inhibition. complete Skeletal [4] [%] | IC50 [5] [µM] | % inhibition at 5 μM (or 10 μM if racemate) Smooth [6] [%] | % inhibition at 50 μM (or 100 μM if racemate) Smooth [6] [%] | % inhibition. complete Smooth [6] [%] | other results
COc1ccc(N2CCC3(O)C(=O)c4cc(C)sc4N=C23)cn1 (stereo not drawn) [Compound 230, 9-Hydroxy-12-(6-methoxypyridin-3-yl)-5-methyl-4-thia-2,12-diazatricyclo[7.3.0.0^3,7]dodeca-1,3(7),5-trien-8-one] | 8.1 | 100 | 36 | 90 | 2.3 | 93 | 61 | 89 | 1.9 | 96 | 68 | 93 | 85 | 92 | 0.43 | 93 | 3.6 | 56 | 96 | 100 | Inhibition (%) NM2C ([2]; maximum inhibition, compounds in IC50 range 1-5 μM): 93%; Inhibition (%) smooth [6]: 100%
CC(=O)c1ccc(N2CCC3(O)C(=O)c4cc(C)sc4N=C23)cc1 (stereo not drawn) [Compound 225, 12-(4-Acetylphenyl)-9-hydroxy-5-methyl-4-thia-2,12-diazatricyclo[7.3.0.0^3,7]dodeca-1,3(7),5-trien-8-one] | 4.1 | 100 | 64 | 97 | 2.8 | 78 | 47 | 74 | 2.4 | 100 | 68 | 96 | 93 | 95 | 0.17 | 96 | 2.2 | 68 | 96 | 100 | Inhibition (%) Dicty [1]: 100%
Cc1cc2c(s1)N=C1N(c3ccc(CC#N)cc3)CCC1(O)C2=O (stereo not drawn) [Compound 226, 2-(4-{9-Hydroxy-5-methyl-8-oxo-4-thia-2,12-diazatricyclo[7.3.0.0^3,7]dodeca-1,3(7),5-trien-12-yl}phenyl)acetonitrile] | 5.5 | 92 | 43 | 83 | 1.5 | 92 | 69 | 90 | 0.73 | 85 | 72 | 83 | 91 | 92 | 0.17 | 93 | 0.5 | 72 | 79 | 80 | Inhibition (%) Dicty [1]: 92%
Cc1cc2c(s1)N=C1N(c3ccc(C#N)cc3)CCC1(O)C2=O (stereo not drawn) [Compound 224, 4-{9-Hydroxy-5-methyl-8-oxo-4-thia-2,12-diazatricyclo[7.3.0.0^3,7]dodeca-1,3(7),5-trien-12-yl}benzonitrile] | 2.8 | 89 | 64 | 86 | 1.2 | 93 | 72 | 91 | 1.7 | 99 | 72 | 96 | 94 | 98 | 0.21 | 98 | 1.7 | 72 | 96 | 99 | –
COc1ccc(N2CCC3(O)C(=O)c4cc(C)sc4N=C23)cc1 (stereo not drawn) [Compound 222, 9-Hydroxy-12-(4-methoxyphenyl)-5-methyl-4-thia-2,12-diazatricyclo[7.3.0.0^3,7]dodeca-1,3(7),5-trien-8-one] | 4.7 | 100 | 49 | 99 | 0.76 | 91 | 77 | 89 | 0.52 | 93 | 82 | 92 | 92 | 95 | 0.11 | 95 | 0.86 | 83 | 97 | 98 | –
N#CCc1ccc(N2CC[C@@]3(O)C(=O)c4ccsc4N=C23)cc1 [Compound 215, (9S)-2-(4-{9-Hydroxy-8-oxo-4-thia-2,12-diazatricyclo[7.3.0.0^3,7]dodeca-1,3(7),5-trien-12-yl}phenyl)acetonitrile] | 12.1 | 78 | 23 | 63 | 19 | 77 | 16 | 56 | 5.6 | 94 | 42 | 84 | 80 | 96 | 1.1 | 98 | 2.3 | 31 | 45 | 47 | Inhibition (%) smooth [6]: 47%
CN(C)c1ccc(N2CCC3(O)C(=O)c4ccncc4N=C23)cc1 (stereo not drawn) [Compound 251, 1-[4-(Dimethylamino)phenyl]-3a-hydroxy-1H,2H,3H,3aH,4H-pyrrolo[2,3-b]1,7-naphthyridin-4-one] | > 100 | – | 1 | 1 | – | – | – | – | 6 | 15 | 6 | 13 | 47 | 85 | 4.8 | 93 | > 100 | 0 | 25 | 100 | Inhibition (%) cardiac ([3]; maximum inhibition, compounds in IC50 range 3-6 μM): 15%
